From publication PMC9900903 (bioRxiv, 2023) come the findings set out here.

For experiment [1], the target named is T1, SasG lectin domain (Staphylococcus aureus, UniProt Q2G2B2).
T1 sequence (Q2G2B2 163-419): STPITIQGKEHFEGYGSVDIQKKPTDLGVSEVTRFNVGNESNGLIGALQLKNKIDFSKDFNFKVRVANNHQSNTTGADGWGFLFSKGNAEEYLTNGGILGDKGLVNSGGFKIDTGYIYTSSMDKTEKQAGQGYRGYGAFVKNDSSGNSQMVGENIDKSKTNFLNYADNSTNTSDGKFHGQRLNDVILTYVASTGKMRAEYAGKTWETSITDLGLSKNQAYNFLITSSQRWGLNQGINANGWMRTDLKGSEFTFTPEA
Briefly: ITC. It counts as binding. The following applies: pH 7.2, 50 mM phosphate, 150 mM NaCl, 25 °C.

The target in experiment [2] is T2, Aap lectin domain (Staphylococcus epidermidis, UniProt Q5HKE8).
T2 sequence (Q5HKE8 351-605): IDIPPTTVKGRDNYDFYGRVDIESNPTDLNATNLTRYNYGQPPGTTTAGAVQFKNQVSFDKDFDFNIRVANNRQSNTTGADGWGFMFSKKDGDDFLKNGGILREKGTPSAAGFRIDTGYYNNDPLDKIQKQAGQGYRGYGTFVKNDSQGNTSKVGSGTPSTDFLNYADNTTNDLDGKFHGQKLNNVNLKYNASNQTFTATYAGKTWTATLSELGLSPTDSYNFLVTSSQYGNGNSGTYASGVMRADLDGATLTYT
Briefly: ITC. It counts as binding. The following applies: pH 7.2, 50 mM phosphate, 150 mM NaCl, 25 °C.

Like-named read-outs stand apart in the source and are kept apart here.

With `CC(=O)N[C@H]1C(O)O[C@H](CO)[C@@H](O[C@@H]2O[C@H](CO)[C@H](O)[C@H](O)[C@H]2O)[C@@H]1O` (stereo partly drawn) [N-acetyllactosamine], in experiment [1], the ITC result was “We confirmed that SasG lectin is able to bind N-acetyllactosamine by ITC”. Besides, the Kd in experiment [2] (read-out: affinity) is approximately 130 µM.

The compound `CC(=O)N[C@H]1[C@H]([C@H](O)[C@H](O)CO)O[C@@](O[C@H]2[C@@H](O)[C@@H](CO)O[C@@H](O[C@H]3[C@H](O)[C@@H](NC(C)=O)C(O)O[C@@H]3CO)[C@@H]2O)(C(=O)O)C[C@@H]1O` (stereo partly drawn) [3'-sialyl-N-acetyllactosamine] yielded a Kd in experiment [2] of 13 µM.
